This is an account of results in patent US5879683A, “Antibacterial agent containing tea extract or active fraction thereof and β-lactam antibiotic” (priority 1994, dated 1999).

Structures are written as SMILES. Where “and” joins values, the source holds several entries; their conditions need not be identical. Equal values may be shown once. Entries after “also recorded” stand apart in the source; their conditions may differ.

Common to all, as to format: cell-based, Staphylococcus aureus
One assay concerns S. aureus USA#18. As to the kind of experiment: Activity II bioassay (anti-PBP2' action), agar well diffusion with methicillin 10 μg/ml. As to conditions: for activity II: pure compound at 1 mg/ml. The text has this:
(§1) Activities I (inhibitory/killing actions against bacteria), II (anti-PBP2' action) and III (action against β-lactamase) were quantitated by bioassay, using large plates (14 cm diameter circular, or 25×25 cm square) containing IsoSensitest agar (Unipath CM 471) to a depth of about 4 mm. surface-seeded with S. aureus. Assay strains and additions to agar varied according to the activity being assayed (Table 4).
(§2) 6 mm wells were cut into the agar and filled with appropriate dilutions (in duplicate) of solutions of the material to be assayed. Following overnight incubation, diameters of inhibition zones were measured, and plots made of (log concentration) vs zone diameter. MNIC was calculated by extrapolating the regression line to zone diameter=6 mm; it was expressed ether as a concentration (μg/ml) or an activity (reciprocal of concentration in mg/ml).
In general terms: Agar diffusion results depend on both activity and mobility in agar.

Another assay deals with S. aureus Oxford. As to the kind of experiment: Activity I bioassay (inhibitory/killing action), agar well diffusion. The conditions noted are these: pure compound at 1 mg/ml.
Description: as §1, §2

For the next assay, the system named is MSSA. As to the kind of experiment: MIC of benzylpenicillin in presence and absence of tea extract, MSSA (activity III). Here is the method: (§3) Strains were grown overnight at 37° C. in IsoSensitest™ broth (ISB, Unipath CM 473), and 1 μl amounts (c. 10^6 colony forming units (cfu) were inoculated on to six series of plates of IsoSensitest™ agar containing doubling dilutions of methicillin (1024- 1 μg/ml) alone and in the presence of tea extract in various sub-inhibitory concentrations, viz final dilutions of 1/40, 1/70, 1/100, 1/200 and 1/300.
(§4) Plates were incubated at 30° for 48 h. The minimum inhibitory concentration (MIC) of antibiotic was calculated for each sample, as a measure of activity II.
The 40 strains tested in Examples 1 and 2 above, together with 9 strains of methicillin-sensitive Staph. aureus (MSSA) were tested for their resistance to benzylpenicillin in the presence or absence of tea extract, with a view to measuring activity III. The procedures used were those described in Example 1, except that benzylpenicillin replaced methicillin. Both MSSA and MRSA have natural resistance to benzylpenicillin through the production of β-lactamase.

The test system of assay [1] is high level MRSA (20 strains of MRSA). As to the kind of experiment: MIC of methicillin alone and in presence of tea extract, agar dilution, high level MRSA (activity II). As to conditions: strain no. is first number of line. Here is the method: A 2% extract of crushed leaf Japanese "Sencha" tea was made in boiling water, and filtered through a Millipore filter. This extract contains about 14.7 mg/ml of tea.
Sodium methicillin (SmithKline Beecham) and vancomycin hydrochloride (Lilly Industries) were Laboratory Reference preparation.
IsoSensitest agar (Unipath CM 471) was supplemented with 20 g NaCl/L.
as §3, §4
For orientation: In agar dilution, organisms are placed on agar that contains the substance at set levels.

For a further assay, the system named is low level MRSA. The experiment in a line: MIC of methicillin alone and in presence of tea extract, low level MRSA (activity II). As to conditions: strain no. is first number of line. Here is the method:
as §3, §4
A further 20 strains of low level MRSA were tested for activity II according to the procedures described in Example 1.

The subject of another assay is MRSA. The experiment in a line: Methicillin MIC in presence of sub-inhibitory vancomycin (control). The conditions noted are these: sub-inhibitory vancomycin in place of tea. Here is the method:
A similar experiment was done using methicillin diluted in a series of sub-inhibitory concentrations of vancomycin, namely 0.5, 0.28, 0.2, 0.1 and 0.07 μg/l.
as §4

Turning to `Oc1cc(O)c2c(c1)O[C@H](c1cc(O)c(O)c(O)c1)[C@H](O)C2` [EGC, Epigallocatechin], the “activity II, pure compounds” value in the assay with S. aureus USA#18 is listed as “no activity II”.
`O=C(O[C@@H]1Cc2c(O)cc(O)cc2O[C@@H]1c1cc(O)c(O)c(O)c1)c1cc(O)c(O)c(O)c1` [EGCG, epigallocatechin gallate]: in the assay with S. aureus USA#18, the “activity II, pure compounds” value is “no activity II”.
Regarding `Oc1cc(O)c2c(c1)O[C@H](c1ccc(O)c(O)c1)[C@H](O)C2` [Epicatechin, epicatechin], the “activity II” value with S. aureus USA#18 was “no evidence of activity I or II”. In addition, the “activity I” value with S. aureus Oxford is “no evidence of activity I or II”.
As for `O=c1c(O)c(-c2ccc(O)c(O)c2)oc2cc(O)cc(O)c12` [Quercitin, quercitin], the “activity II, pure compounds” value with S. aureus USA#18 is “no activity II”.
`CC1(C)S[C@@H]2[C@H](NC(=O)Cc3ccccc3)C(=O)N2[C@H]1C(=O)O` [benzylpenicillin]: in the assay on MSSA (Staphylococcus aureus, 48 h, read-out: MIC of benzylpenicillin, alone, MSSA, strain no. is first number of line), the MIC (usually the least concentration at which growth counts as inhibited) was above 512 µg/mL. Moreover, in the assay with MSSA (strain no. is first number of line), the “MIC of benzylpenicillin, alone” value is 512 µg/mL and 256 µg/mL.
As for `O=C(/C=C/c1ccc(O)c(O)c1)O[C@@H]1C[C@](O)(C(=O)O)C[C@@H](O)[C@H]1O` [chlorogenic acid], the “activity II” value in the assay with S. aureus USA#18 is given as “no evidence of activity I or II”. For the same compound, the “activity I” value in the assay with S. aureus Oxford is recorded as “no evidence of activity I or II”.
For `O=C(O)c1cc(O)c(O)c(O)c1` [gallic acid], in the assay with S. aureus USA#18, the “activity II” value was “no evidence of activity I or II”. In addition, the “activity I” value with S. aureus Oxford was “no evidence of activity I or II”.
As for `O=c1c(O)c(-c2ccc(O)cc2)oc2cc(O)cc(O)c12` [kaempferol], the “activity II, pure compounds” value in the assay with S. aureus USA#18 was “no activity II”.
With `COc1cccc(OC)c1C(=O)N[C@@H]1C(=O)N2[C@@H]1SC(C)(C)[C@@H]2C(=O)O` [methicillin], the “MIC of methicillin, alone” value in assay [1] (no tea) was 512 µg/mL; in the assay with low level MRSA it was 32 µg/mL and 64 µg/mL. Moreover, in assay [1] (tea extract 1/300), the “MIC of methicillin, +T/300” value came to 512 µg/mL.
`Cn1cnc2c1c(=O)[nH]c(=O)n2C` [theobromine]: in the assay on S. aureus USA#18, the “activity II” value is “no evidence of activity I or II”. The “activity I” value in the assay with S. aureus Oxford was “no evidence of activity I or II”.
On to `Cn1c(=O)c2[nH]cnc2n(C)c1=O` [theophylline], for which, in the assay with S. aureus USA#18, the “activity II” value is “no evidence of activity I or II”. Besides, the “activity I” value with S. aureus Oxford is “no evidence of activity I or II”.
With `CN[C@H](CC(C)C)C(=O)N[C@H]1C(=O)N[C@@H](CC(N)=O)C(=O)N[C@H]2C(=O)N[C@H]3C(=O)N[C@H](C(=O)N[C@H](C(=O)O)c4cc(O)cc(O)c4-c4cc3ccc4O)[C@H](O)c3ccc(c(Cl)c3)Oc3cc2cc(c3O[C@@H]2O[C@H](CO)[C@@H](O)[C@H](O)[C@H]2O[C@H]2C[C@](C)(N)[C@H](O)[C@H](C)O2)Oc2ccc(cc2Cl)[C@H]1O` [vancomycin], the “effect of vancomycin on methicillin MIC / synergy” value in the assay with MRSA is reported as “no synergistic effect whatever; also recorded: no reduction in methicillin MIC”.
